The values below come from patent US9051290B2, “Biaryl phosphodiesterase inhibitors” (LEO PHARMA A/S, priority 2010, dated 2015).

In the assay the target is Human recombinant PDE4 (Genbank accession no NM—006203) (Homo sapiens, UniProt Q08499). As to the kind of experiment: PDE4 assay (SPA, cleavage of cAMP). To be noted: 1 hour incubation, test compound up to 10 μM, cAMP 1×10^−5M, read-out: PDE4 IC50 range. It counts as biochemical. Put shortly: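 Human recombinant PDE4 incubated 1 hour with compound (up to 10 μM), 1×10^−5M cAMP and radiolabelled cAMP tracer. AMP product detected by SPA bead binding; IC50 taken as concentration giving 50% inhibition of substrate cleavage versus controls, reported as ranges.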
Human recombinant PDE4 (Genbank accession no NM—006203), sequence (Q08499 1-673 isoform Q08499-2): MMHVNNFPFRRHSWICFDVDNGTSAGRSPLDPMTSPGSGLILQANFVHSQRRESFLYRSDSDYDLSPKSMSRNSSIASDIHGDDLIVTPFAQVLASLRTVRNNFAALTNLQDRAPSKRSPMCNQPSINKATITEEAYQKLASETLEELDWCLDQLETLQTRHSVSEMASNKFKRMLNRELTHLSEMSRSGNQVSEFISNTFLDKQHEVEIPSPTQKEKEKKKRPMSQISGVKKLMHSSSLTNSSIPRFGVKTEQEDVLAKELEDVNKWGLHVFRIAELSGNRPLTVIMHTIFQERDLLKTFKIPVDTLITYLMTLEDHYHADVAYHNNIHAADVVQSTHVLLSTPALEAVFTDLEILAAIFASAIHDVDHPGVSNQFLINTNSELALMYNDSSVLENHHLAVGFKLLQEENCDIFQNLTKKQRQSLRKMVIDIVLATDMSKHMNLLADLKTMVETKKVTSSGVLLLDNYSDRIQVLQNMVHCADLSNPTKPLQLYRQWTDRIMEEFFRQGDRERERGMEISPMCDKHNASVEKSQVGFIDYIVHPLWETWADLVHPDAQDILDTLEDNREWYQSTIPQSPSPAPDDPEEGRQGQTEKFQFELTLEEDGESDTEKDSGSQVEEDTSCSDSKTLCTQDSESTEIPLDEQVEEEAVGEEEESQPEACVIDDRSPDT

Broadly, the IC50 is the concentration that gives 50% inhibition. In the case of `CNC(=O)C(C)(C)COc1c(-c2cccc3c2CCC3=O)ccc(OC)c1OC` [Compound 200, 3-[2,3-Dimethoxy-6-(1-oxo-indan-4-yl)-phenoxy]-2,2,N-trimethyl-propionamide], the IC50 was < 0.1 µM.

With `CCNC(=O)C(C)(C)COc1c(-c2cccc3c2CCC3=O)ccc(OC)c1OC` [Compound 201, 3-[2,3-Dimethoxy-6-(1-oxo-indan-4-yl)-phenoxy]-N-ethyl-2,2-dimethyl-propionamide], the IC50 was < 0.1 µM.

As for `COc1ccc(-c2cccc3c2CCC3=O)c(OCC(C)(C)C(=O)N(C)C)c1OC` [Compound 202, 3-[2,3-Dimethoxy-6-(1-oxo-indan-4-yl)-phenoxy]-2,2,N,N-tetramethyl-propionamide], the IC50 is < 0.1 µM.

Turning to `COc1ccc(-c2cccc3c2CCC3=O)c(OCC(C)(C)C(=O)NC2CC2)c1OC` [Compound 203, N-Cyclopropyl-3-[2,3-dimethoxy-6-(1-oxo-indan-4-yl)-phenoxy]-2,2-dimethyl-propionamide], the IC50 is < 0.1 µM.

Turning to `COc1ccc(-c2cccc3c2CCC3=O)c(OCC(C)(C)C(=O)N2CCOCC2)c1OC` [Compound 204, 4-[2-(2,2-Dimethyl-3-morpholin-4-yl-3-oxo-propoxy)-3,4-dimethoxy-phenyl]-indan-1-one], the IC50 was < 0.1 µM.

Take `CNC(=O)C(C)(C)COc1c(-c2ccc3c(c2)CCC3=O)ccc(OC)c1OC` [Compound 206, 3-[2,3-Dimethoxy-6-(1-oxo-indan-5-yl)-phenoxy]-2,2,N-trimethyl-propionamide]: the IC50 was < 0.1 µM.

Consider `COc1ccc(-c2ccc3c(c2)CCC3=O)c(OCC(C)(C)C(=O)N(C)C)c1OC` [Compound 207, 3-[2,3-Dimethoxy-6-(1-oxo-indan-5-yl)-phenoxy]-2,2,N,N-tetramethyl-propionamide], for which the IC50 fell in the range of 0.1 to 0.5 µM.

Consider `COc1ccc(-c2ccc3c(c2)CCC3=O)c(OCC(C)(C)C(=O)NC(C)C)c1OC` [Compound 208, 3-[2,3-Dimethoxy-6-(1-oxo-indan-5-yl)-phenoxy]-N-isopropyl-2,2-dimethyl-propionamide], for which the IC50 was ≥ 0.5 µM.

On to `CCCNC(=O)C(C)(C)COc1c(-c2ccc3c(c2)CCC3=O)ccc(OC)c1OC` [Compound 209, 3-[2,3-Dimethoxy-6-(1-oxo-indan-5-yl)-phenoxy]-2,2-dimethyl-N-propyl-propionamide], for which the IC50 is 0.1 to 0.5 µM.

As to `CCNC(=O)OCC(C)(C)COc1c(-c2ccc3c(c2)COC3=O)ccc(OC)c1OC` [Compound 210, Ethyl-carbamic acid 3-[2,3-dimethoxy-6-(1-oxo-1,3-dihydro-isobenzofuran-5-yl)-phenoxy]-2,2-dimethyl-propyl Ester], the IC50 is < 0.1 µM.

In the case of `CCNC(=O)OCC(C)(C)COc1c(-c2cccc3c2CCC3=O)ccc(OC)c1OC` [Compound 211, Ethyl-carbamic acid 3-[2,3-dimethoxy-6-(1-oxo-indan-4-yl)-phenoxy]-2,2-dimethyl-propyl ester], the IC50 was < 0.1 µM.

With `CCNC(=O)OCC(C)(C)COc1c(-c2ccc3c(c2)CNC3=O)ccc(OC)c1OC` [Compound 212, Ethyl-carbamic acid 3-[2,3-dimethoxy-6-(1-oxo-2,3-dihydro-1H-isoindol-5-yl)-phenoxy]-2,2-dimethyl-propyl ester], the IC50 is ≥ 0.5 µM.

For `CCNC(=O)OCC1(COc2c(-c3ccc4c(c3)COC4=O)ccc(OC)c2OC)COC1` [Compound 213, Ethyl-carbamic acid 3-[2,3-dimethoxy-6-(1-oxo-1,3-dihydro-isobenzofuran-5-yl)-phenoxymethyl]-oxetan-3-ylmethyl ester], the IC50 was < 0.1 µM.

In the case of `CCNC(=O)OCC1(COc2c(-c3ccc4c(c3)CNC4=O)ccc(OC)c2OC)COC1` [Compound 214, Ethyl-carbamic acid 3-[2,3-dimethoxy-6-(1-oxo-2,3-dihydro-1H-isoindol-5-yl)-phenoxymethyl]-oxetan-3-ylmethyl ester], the IC50 was ≥ 0.5 µM.
